# Data: US20230104487A1, “11-(4-CHLOROPHENYL)-4-(2,3-DIHYDRO-1H-INDOLE-1-CARBONYL)-3,11-DIMETHYL-5,10,DIOXATRICYCLO[7.4.0.0,2,6,]TRIDECA-1,3,6,8-TETRAEN-13-ONE AND DERIVATIVES AS DESTABILIZER OF CRY1 FOR THE TREATMENT OF CIRCADIAN RHYTHM ASSOCIATED DISEASES AND DISORDERS” (KOC UNIVERSITESI, priority 2019, published 2023)
# Experiments:
# [1] = molecular target: T1, CRY1-T5 (PHR domain of CRY1) (Mus musculus, UniProt P97784); experiment: Pull-down assay with biotinylated molecule, CRY1-T5; format: binding; details: CRY1 lacking 100 C-terminal amino acids
# T1 construct: CRY1-T5 (the lack of 100 amino acids from C-terminal end); expressed in transfected cells; host or cells: HEK293T (lysate)
# T1 sequence (P97784 1-506 limits assumed): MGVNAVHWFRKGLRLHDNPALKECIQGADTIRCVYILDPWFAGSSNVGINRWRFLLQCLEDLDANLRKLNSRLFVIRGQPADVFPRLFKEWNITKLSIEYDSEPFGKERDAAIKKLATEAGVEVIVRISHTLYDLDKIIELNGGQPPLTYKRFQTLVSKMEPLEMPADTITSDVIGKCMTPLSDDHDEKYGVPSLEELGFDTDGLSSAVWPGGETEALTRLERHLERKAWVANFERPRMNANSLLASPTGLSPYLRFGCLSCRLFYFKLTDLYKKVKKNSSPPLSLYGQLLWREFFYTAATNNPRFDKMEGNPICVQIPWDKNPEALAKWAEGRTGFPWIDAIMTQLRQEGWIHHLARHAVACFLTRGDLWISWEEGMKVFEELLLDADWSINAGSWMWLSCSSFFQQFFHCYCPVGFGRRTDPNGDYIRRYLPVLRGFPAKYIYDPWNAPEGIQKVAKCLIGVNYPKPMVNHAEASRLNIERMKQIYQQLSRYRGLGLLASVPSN
# Method: 10 μg of Cry1-pcDNA4, Cry2-pcDNA4 or Cry1-T5-pcDNA4 plasmids expressing His and Myc at the C-terminal of CRYs were transfected to HEK293T cell. After 48 h of transfection cells were harvested and lysed in lysis buffer (50 mM Tris pH 7.4, 2 mM EDTA, 1 mM MgCl2, 0.2% NP-40 (v/v), 0.1% sodium deoxycholate (w/v), 1 mM sodium orthovanadate, 1 mM sodium fluoride, and protease inhibitor cocktail (Thermo Scientific)). Lysates were incubated for 10 minutes on ice then mixed gently and incubated for another 10 minutes on ice. Then lysate was centrifuged for 10 minutes at 7000 g at 4° C. 5% of the supernatant was kept for input analysis. Remaining supernatant was divided to three and mixed with 2×binding buffer (100 mM Tris-HCl pH 7.4, 300 mM NaCl, 0.2% NP-40 (v/v), 2 mM sodium orthovanadate, 2 mM sodium fluoride, and protease inhibitor) with 1:1 ratio, incubated with rotation having either of these: a) DMSO, b) biotinylated molecule, c) biotinylated molecule and the competitor for 2 h. During this period NeutrAvidin Agarose resin (Thermo Scientific) was equilibrated with lysis buffer by mixing for 5 minutes via rotation at 4° C. three times. After each mix period, resins were centrifuged at 2500 g at 4° C. for 2 minutes and supernatant was discarded. […] Pulled-down samples were analyzed via western blot.
# NIH 3T3 Per2-dLuc cells = experiment: Real-time monitoring of circadian rhythm, NIH 3T3 Per2-dLuc; format: cell-based; details: dose dependent
# Method: (§1) Luminescence values were recorded at 32° C. for each 30 minutes with 15 seconds integration time via Synergy H1 luminometer for a week. For LumiCycle, 400×10^3 U2-OS Bmal1-dLuc or NIH3T3 mPer2-dLuc cells were seeded to 35 mm plates and then procedure given above was followed with a change in the last step. Plates were sealed with vacuum grease and placed to LumiCycle. Each plate was recorded continuously every 10 minutes for 70 seconds at 37° C. via photomultiplier tubes. Period and amplitude data were obtained from LumiCycle Analysis software. To detect the effect of FORMULA I in the absence of CRYs, Cry1^−/−/Cry2^−/− mouse embryonic fibroblasts (CRYDKO MEFs) transiently transfected with pGL3-Per2-Luc (luciferase reporter) were used. 3×10^5 CRYDKO cells were seeded in 35 mm clear plates. Next day, cells were transfected with 4000 ng pGL3-Per2-Luc via Fugene6 transfection reagent according to the manufacturer's instruction. In short, 3:1 ratio of Fugene6 in μl against transfected DNA amount in μg was kept in transfections. 72 h after transfection cells were synchronized with DXM for two hours. Then, medium was changed with lumicycle medium having DMSO or molecule, sealed with vacuum grease, and placed to LumiCycle.
# [2] = Plasma pharmacokinetics in mice; format: in vivo; details: female, C57BL/6J, mouse, ip, 100 mg/kg, single dose, i.p., read-out: AUC0-24
# [3] = test system: Cry1−/−/Cry2−/− mouse embryonic fibroblasts; experiment: Circadian reporter assay in CRY double knockout MEFs (mPer2-dLuc); format: cell-based; details: DKO-MEF transfected with mPer2-luc
# Method: as §1
smiles,measurement,setting,value
"Cc1c(C(=O)N2CCc3ccccc32)oc2ccc3c(c12)C(=O)CC(C)(c1ccc(Cl)cc1)O3 (stereo not shown) [FORMULA I, 11-(4-chlorophenyl)-4-(2,3-dihydro-1H-indole-1-carbonyl)-3,11-dimethyl-5,10,dioxatricyclo[7.4.0.0,2,6,]trideca-1,3,6,8-tetraen-13-one]",binding to PHR domain (CRY1-T5 pull-down),[1],bound to the PHR domain
same,effect on circadian rhythm,NIH 3T3 Per2-dLuc cells,exhibited similar phenotype
same,AUC(0-t),[2],4920 ± 3070 ng·h/mL
same,effect on rhythm in absence of CRYs,[3],had no effect
